We go through 77 compounds from the Kinase Knowledgebase extract (Sharma et al. 2016).

The test concerns the target PIK3CA (human) (UniProt P42336). Put plainly: Assessment of PIK3CA Kinase Activity.

PIK3CA (human), sequence (P42336 whole entry, looked up): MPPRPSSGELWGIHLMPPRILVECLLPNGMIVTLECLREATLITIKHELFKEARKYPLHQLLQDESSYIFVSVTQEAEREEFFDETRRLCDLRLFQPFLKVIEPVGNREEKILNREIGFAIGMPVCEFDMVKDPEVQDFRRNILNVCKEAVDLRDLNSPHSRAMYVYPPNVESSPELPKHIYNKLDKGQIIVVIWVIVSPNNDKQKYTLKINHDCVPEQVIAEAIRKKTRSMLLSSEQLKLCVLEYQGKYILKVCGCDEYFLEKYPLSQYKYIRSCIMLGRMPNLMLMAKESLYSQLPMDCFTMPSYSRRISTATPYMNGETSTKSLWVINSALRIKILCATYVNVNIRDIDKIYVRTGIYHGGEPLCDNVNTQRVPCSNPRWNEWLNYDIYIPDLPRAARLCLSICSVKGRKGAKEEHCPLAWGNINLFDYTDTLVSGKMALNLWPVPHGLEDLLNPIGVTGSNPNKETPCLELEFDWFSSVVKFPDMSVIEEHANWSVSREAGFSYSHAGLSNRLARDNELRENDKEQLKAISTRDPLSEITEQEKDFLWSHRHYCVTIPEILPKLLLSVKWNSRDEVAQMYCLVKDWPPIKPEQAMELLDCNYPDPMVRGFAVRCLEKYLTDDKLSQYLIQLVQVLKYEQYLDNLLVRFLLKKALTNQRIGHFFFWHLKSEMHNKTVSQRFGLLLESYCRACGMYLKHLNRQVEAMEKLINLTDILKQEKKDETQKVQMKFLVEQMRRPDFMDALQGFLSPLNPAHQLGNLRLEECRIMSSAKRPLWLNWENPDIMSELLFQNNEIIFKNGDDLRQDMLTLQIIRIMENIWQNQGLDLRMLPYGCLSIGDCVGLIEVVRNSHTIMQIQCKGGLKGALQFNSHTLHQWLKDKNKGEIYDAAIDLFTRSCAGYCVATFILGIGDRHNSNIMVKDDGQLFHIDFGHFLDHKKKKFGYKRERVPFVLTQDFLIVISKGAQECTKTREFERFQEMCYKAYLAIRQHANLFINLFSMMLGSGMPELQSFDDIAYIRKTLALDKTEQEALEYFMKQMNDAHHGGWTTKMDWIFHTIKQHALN

For the compound `CC(=O)Nc1ccc(-c2nc(N3CCOCC3)c3sc(CN(C)c4ncc(C(=O)NO)cn4)cc3n2)cn1`, the IC50 is less than 100 nM.
Next, `Nc1ccc(-c2nc(N3CCOCC3)c3sc(CNc4ncc(C(=O)NO)cn4)cc3n2)cc1`: 100 to 1000 nM; `Cc1nc2ccc(-c3nc(N4CCOCC4)c4sc(CN(C)c5ncc(C(=O)NO)cn5)cc4n3)cc2[nH]1`: less than 100 nM.
Compound `CN(Cc1cc2nc(-c3cncnc3)nc(N3CCOCC3)c2s1)c1ncc(C(=O)NO)cn1` registered an IC50 of less than 100 nM.
Next, `Cc1nc(N)ncc1-c1nc(N2CCOCC2)c2sc(CN(C)c3ncc(C(=O)NO)cn3)cc2n1`: less than 100 nM; `CN(C)c1ncc(-c2nc(N3CCOCC3)c3sc(CN(C)c4ncc(C(=O)NO)cn4)cc3n2)cn1`: less than 100 nM.
Next, `CN(Cc1cc2nc(-c3ccc4[nH]ccc4c3)nc(N3CCOCC3)c2s1)c1ncc(C(=O)NO)cn1`: 100 to 1000 nM.
Next, `CC(=O)Nc1ccc(-c2nc(N3CCOCC3)c3sc(CN(C)c4ncc(C(=O)NO)cn4)cc3n2)cc1`: less than 100 nM; `O=C(CCCCCCNc1cc2nc(-c3cccc4[nH]ncc34)nc(N3CCOCC3)c2s1)NO`: 100 to 1000 nM; `CN(Cc1cc2nc(-c3cc[nH]c3)nc(N3CCOCC3)c2s1)c1ncc(C(=O)NO)cn1`: less than 100 nM.
In the case of `CCN(Cc1cc2nc(-c3cccc4[nH]ncc34)nc(N3CCOCC3)c2s1)c1ncc(C(=O)NO)cn1`, the IC50 is less than 100 nM.
Next, `O=C(C=Cc1cc2nc(-c3cccc4[nH]ncc34)nc(N3CCOCC3)c2s1)NO`: 100 to 1000 nM.
Next, `CN(Cc1cc2nc(-c3ccc(O)cc3)nc(N3CCOCC3)c2s1)c1ncc(C(=O)NO)cn1`: 100 to 1000 nM; `O=C(/C=C/c1ccc(NCc2cc3nc(-c4cccc5[nH]ncc45)nc(N4CCOCC4)c3s2)cc1)NO`: less than 100 nM.
Next, `C#CCCN(Cc1cc2nc(-c3cccc4[nH]ncc34)nc(N3CCOCC3)c2s1)c1ncc(C(=O)NO)cn1`: less than 100 nM; `CN(Cc1cc2nc(-c3cccc4[nH]ncc34)nc(N3CCOCC3)c2s1)c1ncc(C=CC(=O)NO)cn1`: less than 100 nM.
`CN(C)CCN(Cc1cc2nc(-c3cccc4[nH]ncc34)nc(N3CCOCC3)c2s1)c1ncc(C(=O)NO)cn1` showed a 50% inhibitory concentration (IC50) of less than 100 nM.
Next, `CN(CCCCC(=O)NO)Cc1cc2nc(-c3cccc4[nH]ncc34)nc(N3CCOCC3)c2s1`: 100 to 1000 nM.
Next, `CCN(Cc1cc2nc(-c3ccc(N)cc3)nc(N3CCOCC3)c2s1)c1ncc(C(=O)NO)cn1`: 100 to 1000 nM; `CN(Cc1cc2nc(-c3cc(F)cc4[nH]ncc34)nc(N3CCOCC3)c2s1)c1ncc(C(=O)NO)cn1`: less than 100 nM.
Next, `CCCCN(Cc1cc2nc(-c3cccc4[nH]ncc34)nc(N3CCOCC3)c2s1)c1ncc(C(=O)NO)cn1`: 100 to 1000 nM; `CC(=O)OCCN(Cc1cc2nc(-c3cccc4[nH]ncc34)nc(N3CCOCC3)c2s1)c1ncc(C(=O)NO)cn1`: less than 100 nM.
In turn, `N#CCCN(Cc1cc2nc(-c3cccc4[nH]ncc34)nc(N3CCOCC3)c2s1)c1ncc(C(=O)NO)cn1` returned an IC50 of less than 100 nM.
Compound `CN(Cc1cc2nc(-c3cccc(O)c3)nc(N3CCOCC3)c2s1)c1ncc(C(=O)NO)cn1` gave an IC50 of less than 100 nM.
Next, `CN(Cc1cc2nc(-c3ccccc3CO)nc(N3CCOCC3)c2s1)c1ncc(C(=O)NO)cn1`: 100 to 1000 nM.
Next, `CN(Cc1cc2nc(-c3cnc(CN)nc3)nc(N3CCOCC3)c2s1)c1ncc(C(=O)NO)cn1`: less than 100 nM; `O=C(CCCCCCNCc1cc2nc(-c3cccc4[nH]ncc34)nc(N3CCOCC3)c2s1)NO`: less than 100 nM.
Next, `NC(=O)CN(Cc1cc2nc(-c3cccc4[nH]ncc34)nc(N3CCOCC3)c2s1)c1ncc(C(=O)NO)cn1`: less than 100 nM; `CN(Cc1cc2nc(-c3ccc(CO)cc3)nc(N3CCOCC3)c2s1)c1ncc(C(=O)NO)cn1`: 100 to 1000 nM; `CCCN(Cc1cc2nc(-c3cccc4[nH]ncc34)nc(N3CCOCC3)c2s1)c1ncc(C(=O)NO)cn1`: less than 100 nM.
For the compound `O=C(NO)c1ccc(NCc2cc3nc(-c4cccc5[nH]ncc45)nc(N4CCOCC4)c3s2)nc1`, the IC50 is less than 100 nM.
Next, `O=C(CCCCCCN1CCN(Cc2cc3nc(-c4cccc5[nH]ncc45)nc(N4CCOCC4)c3s2)CC1)NO`: 100 to 1000 nM; `CC(C)(Nc1ncc(C(=O)NO)cn1)c1cc2nc(-c3cccc4[nH]ncc34)nc(N3CCOCC3)c2s1`: 100 to 1000 nM; `CN(CCCCCC(=O)NO)Cc1cc2nc(-c3cccc4[nH]ncc34)nc(N3CCOCC3)c2s1`: 100 to 1000 nM.
Next, `CN(Cc1cc2nc(-c3cccc4[nH]ncc34)nc(N3CCCCC3)c2s1)c1ncc(C(=O)NO)cn1`: 100 to 1000 nM; `CN(Cc1cc2nc(-c3ccc(N)cc3)nc(N3CCOCC3)c2s1)c1ccc(C(=O)NO)cc1`: 100 to 1000 nM.
Next, `O=C(NO)c1cnc(N2CCC(CNc3cc4nc(-c5cccc6[nH]ncc56)nc(N5CCOCC5)c4s3)CC2)nc1`: less than 100 nM; `CN(Cc1cc2nc(-c3ccc(C(F)(F)F)cc3)nc(N3CCOCC3)c2s1)c1ncc(C(=O)NO)cn1`: 100 to 1000 nM.
For the compound `CC(C)(C)CN(Cc1cc2nc(-c3cccc4[nH]ncc34)nc(N3CCOCC3)c2s1)c1ncc(C(=O)NO)cn1`, the IC50 was in the range of 100 to 1000 nM.
Next, `CN(Cc1cc2nc(-c3ccc(C(N)=O)cc3)nc(N3CCOCC3)c2s1)c1ncc(C(=O)NO)cn1`: 100 to 1000 nM; `CC(C)CN(Cc1cc2nc(-c3cccc4[nH]ncc34)nc(N3CCOCC3)c2s1)c1ncc(C(=O)NO)cn1`: 100 to 1000 nM.
Next, `CN(Cc1cc2nc(-c3ccc(N)c(N)c3)nc(N3CCOCC3)c2s1)c1ncc(C(=O)NO)cn1`: 100 to 1000 nM; `O=C(NO)c1cc2nc(-c3cccc4[nH]ncc34)nc(N3CCOCC3)c2s1`: less than 100 nM; `O=C(CCCNCc1cc2nc(-c3cccc4[nH]ncc34)nc(N3CCOCC3)c2s1)NO`: 100 to 1000 nM.
`CC1CN(c2nc(-c3cccc4[nH]ncc34)nc3cc(CN(C)c4ncc(C(=O)NO)cn4)sc23)CC(C)O1` (configuration not stated): the IC50 lay in the range of 100 to 1000 nM.
Next, `CN(Cc1cc2cc(-c3cccc4[nH]ncc34)nc(N3CCOCC3)c2s1)c1ncc(C(=O)NO)cn1`: 100 to 1000 nM; `O=C(NO)c1cnc(NCc2cc3cc(-c4cccc5[nH]ncc45)nc(N4CCOCC4)c3s2)nc1`: 100 to 1000 nM.
Next, `CN(CC1CCN(c2ncc(C(=O)NO)cn2)CC1)c1cc2nc(-c3cccc4[nH]ncc34)nc(N3CCOCC3)c2s1`: less than 100 nM; `Nc1ccc(-c2nc(N3CCOCC3)c3sc(CN4CCN(c5ncc(C(=O)NO)cn5)CC4)cc3n2)cc1`: 100 to 1000 nM.
Turning to `Nc1ccc(-c2nc(N3CCOCC3)c3sc(CNCc4ccc(/C=C/C(=O)NO)cc4)cc3n2)cc1`, the 50% inhibitory concentration (IC50) is 100 to 1000 nM.
Next, `CN(Cc1cc2nc(-c3cccc4[nH]ncc34)nc(N3CCOCC3)c2s1)c1ccc(/C=C/C(=O)NO)cc1`: less than 100 nM; `CN(Cc1cc2nc(-c3cccc(CO)c3)nc(N3CCOCC3)c2s1)c1ncc(C(=O)NO)cn1`: less than 100 nM; `CN(Cc1cc2nc(-c3cccnc3)nc(N3CCOCC3)c2s1)c1ncc(C(=O)NO)cn1`: less than 100 nM.
Next, `CN(Cc1cc2nc(-c3ccc(N)nc3)nc(N3CCOCC3)c2s1)c1ncc(C(=O)NO)cn1`: less than 100 nM; `O=C(NO)c1ccc(CNCc2cc3nc(-c4cccc5[nH]ncc45)nc(N4CCOCC4)c3s2)cc1`: 100 to 1000 nM; `CS(=O)(=O)N1CCN(Cc2cc3nc(-c4cccc5nn(CCCCC(=O)NO)cc45)nc(N4CCOCC4)c3s2)CC1`: 100 to 1000 nM.
Next, `COc1ccccc1Nc1nc(-c2cccc3[nH]ncc23)nc2cc(CN(C)c3ncc(C(=O)NO)cn3)sc12`: 100 to 1000 nM.
Consider `O=C(NO)c1cnc(N2CCC(CNCc3cc4nc(-c5cccc6[nH]ncc56)nc(N5CCOCC5)c4s3)CC2)nc1`, for which the IC50 fell in the range of 100 to 1000 nM.
`O=C(NO)c1ccc(NCc2cc3nc(-c4cccc5[nH]ncc45)nc(N4CCOCC4)c3s2)cc1` had a half-maximal inhibitory concentration (IC50) of 100 to 1000 nM.
Next, `CN(CCCCCCC(=O)NO)Cc1cc2nc(-c3cccc4[nH]ncc34)nc(N3CCOCC3)c2s1`: less than 100 nM.
Next, `CN(Cc1cc2nc(-c3ccc(N)cc3)nc(N3CCOCC3)c2s1)c1ncc(C(=O)NO)cn1`: less than 100 nM.
Next, `COCCN(Cc1cc2nc(-c3cccc4[nH]ncc34)nc(N3CCOCC3)c2s1)c1ncc(C(=O)NO)cn1`: less than 100 nM; `NCCN(Cc1cc2nc(-c3cccc4[nH]ncc34)nc(N3CCOCC3)c2s1)c1ncc(C(=O)NO)cn1`: less than 100 nM; `CN(Cc1cc2nc(-c3cccc4[nH]ccc34)nc(N3CCOCC3)c2s1)c1ncc(C(=O)NO)cn1`: 100 to 1000 nM.
The compound `CN(Cc1cc2nc(-c3cnc(C(N)=O)nc3)nc(N3CCOCC3)c2s1)c1ncc(C(=O)NO)cn1` returned an IC50 of less than 100 nM.
Turning to `Cc1c(CN(C)c2ncc(C(=O)NO)cn2)sc2c(N3CCOCC3)nc(-c3cccc4[nH]ncc34)nc12`, the concentration for half-maximal inhibition (IC50) lay within 100 to 1000 nM.
Next, `COCc1cccc(-c2nc(N3CCOCC3)c3sc(CN(C)c4ncc(C(=O)NO)cn4)cc3n2)c1`: 100 to 1000 nM; `CN(Cc1cc2nc(-c3cccc4[nH]ncc34)nc(N3CCOCC3)c2s1)CC1CCN(c2ncc(C(=O)NO)cn2)CC1`: less than 100 nM; `O=C(CCCCCN1CCN(Cc2cc3nc(-c4cccc5[nH]ncc45)nc(N4CCOCC4)c3s2)CC1)NO`: less than 100 nM.
Next, `CN(Cc1cc2nc(-c3cccc4[nH]ncc34)nc(NCCO)c2s1)c1ncc(C(=O)NO)cn1`: 100 to 1000 nM; `O=C(C=Cc1ccc(S(=O)(=O)Nc2cc3nc(-c4cccc5[nH]ncc45)nc(N4CCOCC4)c3s2)cc1)NO`: less than 100 nM.
Next, `CNc1ncc(-c2nc(N3CCOCC3)c3sc(CN(C)c4ncc(C(=O)NO)cn4)cc3n2)cn1`: less than 100 nM.
Turning to `CN(Cc1cc2nc(-c3cccc(C(N)=O)c3)nc(N3CCOCC3)c2s1)c1ncc(C(=O)NO)cn1`, the half-maximal inhibitory concentration (IC50) was in the range of 100 to 1000 nM.
`CN(Cc1cc2nc(-c3ccc(CN)cc3)nc(N3CCOCC3)c2s1)c1ncc(C(=O)NO)cn1` showed an IC50 of 100 to 1000 nM.
Next, `CN(CCCC(=O)NO)Cc1cc2nc(-c3cccc4[nH]ncc34)nc(N3CCOCC3)c2s1`: 100 to 1000 nM; `CC1COCC(C)N1c1nc(-c2cccc3[nH]ncc23)nc2cc(CN(C)c3ncc(C(=O)NO)cn3)sc12` (configuration not stated): 100 to 1000 nM.
`COCCN(CCOC)c1nc(-c2cccc3[nH]ncc23)nc2cc(CN(C)c3ncc(C(=O)NO)cn3)sc12`: the half-maximal inhibitory concentration (IC50) was 100 to 1000 nM.
